From patent publication US9340590B2 (priority 2011, dated 2016) come the findings set out here.

Read-outs that look alike come from different tables or passages of the source. Positions of bridges follow the written chain, without caps; N, C: chain ends. Non-standard residues stand in square brackets, D forms with d. Residues, ends and D or L forms follow the SMILES beside them. 1Nal = N[C@@H](Cc1cccc2ccccc12)C(=O)O

Common to all, as to assay: cell-based
One assay addresses hNav1.3 (Homo sapiens, UniProt Q9NY46). Conditions: IonWorks Quattro, read-out: IWQ Use Nav1.3. On the technique in general: Patch clamp records ionic current or voltage across a cell membrane.
The target in another assay is hNav1.7 (Homo sapiens, UniProt Q15858). It is filed as cell-based.
Another assay concerns the target hNav1.5 (Homo sapiens, UniProt Q14524). The conditions noted are these: IonWorks Quattro, read-out: IWQ Use Nav1.5.
The mark [1] stands for this setting: Table 25, IonWorks Quattro, use, […], read-out: IWQ Use Nav1.7.
[2] abbreviates: IonWorks Quattro, use-dependent, […], read-out: IWQ Use Nav1.7.

Chain of hNav1.3 (Q9NY46 whole entry, looked up): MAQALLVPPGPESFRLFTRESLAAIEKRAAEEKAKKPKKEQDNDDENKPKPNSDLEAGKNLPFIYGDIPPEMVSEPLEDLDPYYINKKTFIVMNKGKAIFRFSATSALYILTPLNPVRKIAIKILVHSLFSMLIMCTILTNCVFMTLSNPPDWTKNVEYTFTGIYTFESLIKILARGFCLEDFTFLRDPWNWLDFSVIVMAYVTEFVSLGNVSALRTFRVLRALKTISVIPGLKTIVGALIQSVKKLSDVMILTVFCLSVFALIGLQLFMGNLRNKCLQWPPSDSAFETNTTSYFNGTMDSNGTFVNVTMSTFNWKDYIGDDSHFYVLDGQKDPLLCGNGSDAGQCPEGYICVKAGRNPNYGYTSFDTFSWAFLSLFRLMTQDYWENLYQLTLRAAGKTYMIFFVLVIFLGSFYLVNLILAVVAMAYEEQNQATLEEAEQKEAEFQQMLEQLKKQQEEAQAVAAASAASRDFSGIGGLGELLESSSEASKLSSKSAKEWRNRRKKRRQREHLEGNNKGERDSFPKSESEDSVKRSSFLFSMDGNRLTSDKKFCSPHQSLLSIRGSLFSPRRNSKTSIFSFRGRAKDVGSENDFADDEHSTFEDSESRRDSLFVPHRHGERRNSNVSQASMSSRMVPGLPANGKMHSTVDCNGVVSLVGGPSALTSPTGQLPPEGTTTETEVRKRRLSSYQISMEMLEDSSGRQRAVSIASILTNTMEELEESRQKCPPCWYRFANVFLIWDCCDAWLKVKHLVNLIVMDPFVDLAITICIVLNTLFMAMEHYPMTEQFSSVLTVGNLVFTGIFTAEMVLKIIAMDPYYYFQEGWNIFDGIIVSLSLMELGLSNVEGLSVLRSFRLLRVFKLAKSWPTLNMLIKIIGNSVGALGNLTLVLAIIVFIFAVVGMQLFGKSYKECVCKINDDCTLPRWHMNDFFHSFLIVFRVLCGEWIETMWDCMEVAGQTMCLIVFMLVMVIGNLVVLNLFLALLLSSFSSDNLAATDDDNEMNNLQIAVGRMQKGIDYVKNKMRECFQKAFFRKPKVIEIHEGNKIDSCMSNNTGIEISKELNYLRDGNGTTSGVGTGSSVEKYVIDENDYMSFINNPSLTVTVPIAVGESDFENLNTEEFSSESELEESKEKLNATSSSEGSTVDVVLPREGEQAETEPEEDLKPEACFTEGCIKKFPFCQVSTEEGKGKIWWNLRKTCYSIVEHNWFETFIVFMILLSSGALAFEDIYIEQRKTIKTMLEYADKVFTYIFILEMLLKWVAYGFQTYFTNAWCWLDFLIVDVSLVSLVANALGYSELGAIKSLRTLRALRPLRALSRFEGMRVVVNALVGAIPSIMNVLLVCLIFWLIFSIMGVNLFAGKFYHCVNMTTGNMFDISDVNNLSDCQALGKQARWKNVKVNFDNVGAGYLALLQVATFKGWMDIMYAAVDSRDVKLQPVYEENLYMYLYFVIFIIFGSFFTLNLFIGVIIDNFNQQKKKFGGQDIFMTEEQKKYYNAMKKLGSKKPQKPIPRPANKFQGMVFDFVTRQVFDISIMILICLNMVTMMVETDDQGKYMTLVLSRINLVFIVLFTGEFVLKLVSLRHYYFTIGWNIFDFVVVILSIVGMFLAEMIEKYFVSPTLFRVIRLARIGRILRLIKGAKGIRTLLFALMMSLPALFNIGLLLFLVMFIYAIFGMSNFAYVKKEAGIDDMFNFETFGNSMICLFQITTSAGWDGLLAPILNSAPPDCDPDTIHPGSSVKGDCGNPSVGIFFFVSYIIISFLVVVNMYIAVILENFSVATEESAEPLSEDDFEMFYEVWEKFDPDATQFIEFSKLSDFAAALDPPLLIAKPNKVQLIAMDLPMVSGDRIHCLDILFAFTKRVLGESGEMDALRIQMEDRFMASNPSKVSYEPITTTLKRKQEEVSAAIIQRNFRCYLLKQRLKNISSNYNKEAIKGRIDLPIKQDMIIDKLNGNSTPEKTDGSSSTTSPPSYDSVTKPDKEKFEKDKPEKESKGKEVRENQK
Chain of hNav1.5 (Q14524 whole entry, looked up): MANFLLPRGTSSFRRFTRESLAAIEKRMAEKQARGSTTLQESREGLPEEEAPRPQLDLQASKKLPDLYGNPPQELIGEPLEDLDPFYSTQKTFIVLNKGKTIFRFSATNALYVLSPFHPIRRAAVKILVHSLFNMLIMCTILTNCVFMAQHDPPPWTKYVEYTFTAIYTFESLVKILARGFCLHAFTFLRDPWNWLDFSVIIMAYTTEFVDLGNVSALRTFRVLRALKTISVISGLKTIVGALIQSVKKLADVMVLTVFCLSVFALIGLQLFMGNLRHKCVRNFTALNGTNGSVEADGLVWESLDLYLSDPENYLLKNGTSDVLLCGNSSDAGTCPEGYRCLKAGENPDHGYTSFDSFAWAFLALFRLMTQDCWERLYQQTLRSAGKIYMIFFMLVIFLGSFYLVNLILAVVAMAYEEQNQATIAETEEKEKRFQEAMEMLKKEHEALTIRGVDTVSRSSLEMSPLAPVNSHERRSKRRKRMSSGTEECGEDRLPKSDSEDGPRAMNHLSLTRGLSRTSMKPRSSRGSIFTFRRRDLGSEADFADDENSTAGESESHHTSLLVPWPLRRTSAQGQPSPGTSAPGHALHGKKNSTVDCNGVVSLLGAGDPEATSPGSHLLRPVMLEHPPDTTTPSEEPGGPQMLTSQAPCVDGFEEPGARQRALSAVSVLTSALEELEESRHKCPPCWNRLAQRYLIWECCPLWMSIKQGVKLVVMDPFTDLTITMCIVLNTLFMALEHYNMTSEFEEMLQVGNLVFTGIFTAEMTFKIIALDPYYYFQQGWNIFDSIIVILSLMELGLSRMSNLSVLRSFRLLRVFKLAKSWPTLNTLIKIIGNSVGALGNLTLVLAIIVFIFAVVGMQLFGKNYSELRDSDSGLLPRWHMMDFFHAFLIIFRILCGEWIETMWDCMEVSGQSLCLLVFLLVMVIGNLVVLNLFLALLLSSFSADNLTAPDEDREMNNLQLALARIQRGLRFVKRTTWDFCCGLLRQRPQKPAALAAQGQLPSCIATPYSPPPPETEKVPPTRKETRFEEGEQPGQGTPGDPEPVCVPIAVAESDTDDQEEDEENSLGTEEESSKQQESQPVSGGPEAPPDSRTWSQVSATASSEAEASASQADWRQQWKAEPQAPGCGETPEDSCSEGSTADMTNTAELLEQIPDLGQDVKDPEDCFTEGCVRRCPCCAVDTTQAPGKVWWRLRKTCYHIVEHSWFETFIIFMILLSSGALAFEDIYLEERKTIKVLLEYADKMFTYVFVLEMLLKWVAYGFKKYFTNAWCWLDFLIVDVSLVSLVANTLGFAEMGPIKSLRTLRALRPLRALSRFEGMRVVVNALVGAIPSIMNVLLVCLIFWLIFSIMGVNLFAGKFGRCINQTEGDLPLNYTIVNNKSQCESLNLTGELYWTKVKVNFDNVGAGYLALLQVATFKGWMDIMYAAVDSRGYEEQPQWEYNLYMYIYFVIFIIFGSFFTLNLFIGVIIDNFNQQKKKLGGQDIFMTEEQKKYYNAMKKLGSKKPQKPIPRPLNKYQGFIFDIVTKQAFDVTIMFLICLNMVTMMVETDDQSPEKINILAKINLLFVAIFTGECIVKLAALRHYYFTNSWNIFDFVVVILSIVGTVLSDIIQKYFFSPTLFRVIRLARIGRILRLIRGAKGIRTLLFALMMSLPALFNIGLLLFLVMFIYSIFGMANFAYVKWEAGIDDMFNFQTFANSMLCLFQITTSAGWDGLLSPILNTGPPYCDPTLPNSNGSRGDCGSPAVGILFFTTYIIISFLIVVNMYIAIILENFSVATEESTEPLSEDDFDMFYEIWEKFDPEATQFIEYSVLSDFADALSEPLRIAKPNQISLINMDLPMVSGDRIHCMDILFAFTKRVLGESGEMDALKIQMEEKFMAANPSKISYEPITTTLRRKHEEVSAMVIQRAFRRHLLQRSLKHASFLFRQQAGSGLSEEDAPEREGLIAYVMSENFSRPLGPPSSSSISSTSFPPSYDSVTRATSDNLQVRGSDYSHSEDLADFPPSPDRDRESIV

Consider `CC[C@H](C)[C@@H]1NC(=O)[C@@H]2CSSC[C@@H]3NC(=O)[C@H](C(C)C)NC(=O)[C@H](CC(C)C)NC(=O)[C@H](CC(N)=O)NC(=O)[C@@H]4CCCN4C(=O)[C@H](CCCNC(=N)N)NC(=O)[C@H](CSSC[C@H](NC(=O)[C@@H](N)CC(=O)O)C(=O)N[C@@H](CC(C)C)C(=O)NCC(=O)N[C@@H](Cc4ccccc4)C(=O)N[C@@H](CCSC)C(=O)N[C@@H](CCCNC(=N)N)C(=O)N[C@@H](CCCCN)C(=O)N2)NC(=O)[C@H](CSSC[C@@H](C(=O)N[C@@H](CCCNC(=N)N)C(=O)N[C@@H](Cc2ccc(O)cc2)C(=O)N[C@H](C(=O)N[C@@H](Cc2ccccc2)C(N)=O)C(C)C)NC(=O)[C@H](Cc2c[nH]c4ccccc24)NC(=O)[C@H](CCCCN)NC(=O)[C@H](Cc2cnc[nH]2)NC(=O)[C@H]([C@@H](C)O)NC(=O)[C@H](CCCNC(=N)N)NC(=O)[C@H](CO)NC3=O)NC(=O)[C@H](CCCCN)NC(=O)[C@H](CC(=O)O)NC(=O)[C@H](CC(N)=O)NC(=O)[C@H](CC(=O)O)NC(=O)[C@@H]2CCCN2C1=O` [compound 73] (H-DCLGFMRKCIPDNDKCCRPNLVCSRTHKWCRYVF-NH2; disulfide 2-17, 9-23, 16-30), for which the IC50 on hNav1.3 (Table 25, use, […]) was found to be 4950 nM; at hNav1.7 (setting [1]) it was 1360 nM; at hNav1.5 (Table 25, use, […]), 9170 nM.

Consider `CC[C@H](C)[C@@H]1NC(=O)[C@@H]2CSSC[C@@H]3NC(=O)[C@H](C(C)C)NC(=O)[C@H](CC(C)C)NC(=O)[C@H](CC(N)=O)NC(=O)[C@@H]4CCCN4C(=O)[C@H](CCCNC(=N)N)NC(=O)[C@H](CSSC[C@H](NC(=O)[C@@H](N)CC(=O)O)C(=O)N[C@@H](CC(C)C)C(=O)NCC(=O)N[C@@H](Cc4ccccc4)C(=O)N[C@@H](CCSC)C(=O)N[C@@H](CCCNC(=N)N)C(=O)N[C@@H](CCCCN)C(=O)N2)NC(=O)[C@H](CSSC[C@@H](C(=O)N[C@@H](CCCCN)C(=O)N[C@@H](Cc2ccc(O)cc2)C(=O)N[C@H](C(=O)N[C@@H](CCCNC(=N)N)C(N)=O)C(C)C)NC(=O)[C@H](Cc2c[nH]c4ccccc24)NC(=O)[C@H](CCCCN)NC(=O)[C@H](Cc2cnc[nH]2)NC(=O)[C@H]([C@@H](C)O)NC(=O)[C@H](CCCNC(=N)N)NC(=O)[C@H](CO)NC3=O)NC(=O)[C@H](CCCCN)NC(=O)[C@H](CC(=O)O)NC(=O)[C@H](CC(N)=O)NC(=O)[C@H](CC(=O)O)NC(=O)[C@@H]2CCCN2C1=O` [compound 75] (H-DCLGFMRKCIPDNDKCCRPNLVCSRTHKWCKYVR-NH2; disulfide 2-17, 9-23, 16-30), for which the IC50 was determined as 4690 nM at hNav1.3 (use-dependent, […]); 3580 nM against hNav1.7; 8990 nM on hNav1.5 (use-dependent, […]).

As for `CC[C@H](C)[C@@H]1NC(=O)[C@@H]2CSSC[C@@H]3NC(=O)[C@H](C(C)C)NC(=O)[C@H](CC(C)C)NC(=O)[C@H](CC(N)=O)NC(=O)[C@@H]4CCCN4C(=O)[C@H](CCCNC(=N)N)NC(=O)[C@H](CSSC[C@H](NC(=O)[C@@H](N)CC(=O)O)C(=O)N[C@@H](CC(C)C)C(=O)NCC(=O)N[C@@H](Cc4ccccc4)C(=O)N[C@@H](CCSC)C(=O)N[C@@H](CCCNC(=N)N)C(=O)N[C@@H](CCCCN)C(=O)N2)NC(=O)[C@H](CSSC[C@@H](C(=O)N[C@@H](CCCCN)C(=O)N[C@@H](Cc2ccc(O)cc2)C(=O)N[C@H](C(=O)N[C@@H](Cc2ccccc2)C(=O)N[C@@H](CCCNC(=N)N)C(N)=O)C(C)C)NC(=O)[C@H](Cc2c[nH]c4ccccc24)NC(=O)[C@H](CCCCN)NC(=O)[C@H](Cc2cnc[nH]2)NC(=O)[C@H]([C@@H](C)O)NC(=O)[C@H](CCCNC(=N)N)NC(=O)[C@H](CO)NC3=O)NC(=O)[C@H](CCCCN)NC(=O)[C@H](CC(=O)O)NC(=O)[C@H](CC(N)=O)NC(=O)[C@H](CC(=O)O)NC(=O)[C@@H]2CCCN2C1=O` [compound 76], the IC50 at hNav1.3 (use-dependent, […]) came to 100 nM; on hNav1.7 (IonWorks Quattro, use-dependent, […], read-out: IWQ Use Nav1.7 (μm)), 300 nM; at hNav1.5 (use-dependent, […]), 9730 nM.

Consider `CC[C@H](C)[C@@H]1NC(=O)[C@@H]2CSSC[C@@H]3NC(=O)[C@H](C(C)C)NC(=O)[C@H](CC(C)C)NC(=O)[C@H](CC(N)=O)NC(=O)[C@@H]4CCCN4C(=O)[C@H](CCCNC(=N)N)NC(=O)[C@H](CSSC[C@H](NC(=O)[C@@H](N)CC(=O)O)C(=O)N[C@@H](CC(C)C)C(=O)NCC(=O)N[C@@H](Cc4ccccc4)C(=O)N[C@@H](CCSC)C(=O)N[C@@H](CCCNC(=N)N)C(=O)N[C@@H](CCCCN)C(=O)N2)NC(=O)[C@H](CSSC[C@@H](C(=O)N[C@@H](CCCCN)C(=O)N[C@@H](Cc2ccc(O)cc2)C(=O)N[C@H](C(=O)N[C@@H](Cc2cccc4ccccc24)C(N)=O)C(C)C)NC(=O)[C@H](Cc2c[nH]c4ccccc24)NC(=O)[C@H](CCCCN)NC(=O)[C@H](Cc2cnc[nH]2)NC(=O)[C@H]([C@@H](C)O)NC(=O)[C@H](CCCNC(=N)N)NC(=O)[C@H](CO)NC3=O)NC(=O)[C@H](CCCCN)NC(=O)[C@H](CC(=O)O)NC(=O)[C@H](CC(N)=O)NC(=O)[C@H](CC(=O)O)NC(=O)[C@@H]2CCCN2C1=O` [compound 80] (H-DCLGFMRKCIPDNDKCCRPNLVCSRTHKWCKYV[1Nal]-NH2; disulfide 2-17, 9-23, 16-30), for which the IC50 came out at 30 nM at hNav1.3 (use-dependent, […]); 20 nM on hNav1.7 (setting [2]); 10200 nM on hNav1.5 (use-dependent, […]).

As for `CSCC[C@@H]1NC(=O)[C@H](Cc2ccccc2)NC(=O)CNC(=O)[C@H](CC(C)C)NC(=O)[C@@H](NC(=O)[C@@H](N)CC(=O)O)CSSC[C@@H]2NC(=O)[C@@H]3CSSC[C@@H](C(=O)N[C@@H](CCCCN)C(=O)N[C@@H](Cc4ccc(O)cc4)C(=O)N[C@H](C(=O)N[C@@H](Cc4ccccc4)C(N)=O)C(C)C)NC(=O)[C@H](Cc4c[nH]c5ccccc45)NC(=O)[C@H](CCCCN)NC(=O)[C@H](Cc4c[nH]cn4)NC(=O)[C@H]([C@@H](C)O)NC(=O)[C@H](CCCNC(=N)N)NC(=O)[C@H](CO)NC(=O)[C@H](CSSC[C@H](NC(=O)[C@H](CCCCN)NC(=O)[C@H](CCCNC(=N)N)NC1=O)C(=O)N[C@@H](Cc1c[nH]c4ccccc14)C(=O)N1CCC[C@H]1C(=O)N[C@@H](CC(=O)O)C(=O)N[C@@H](CC(N)=O)C(=O)N[C@@H](CC(=O)O)C(=O)N[C@@H](CCCCN)C(=O)N3)NC(=O)[C@H](C(C)C)NC(=O)[C@H](CC(C)C)NC(=O)[C@H](CC(N)=O)NC(=O)[C@@H]1CCCN1C(=O)[C@H](CCCNC(=N)N)NC2=O` [compound 83] (H-DCLGFMRKCWPDNDKCCRPNLVCSRTHKWCKYVF-NH2; disulfide 2-17, 9-23, 16-30), the IC50 is 190 nM at hNav1.3 (Use); 100 nM at hNav1.7 (IonWorks Quattro, Use, read-out: IWQ Use Nav1.7); 8020 nM at hNav1.5 (Use).

Consider `CC[C@H](C)[C@@H]1NC(=O)[C@@H]2CSSC[C@@H]3NC(=O)[C@H](C(C)C)NC(=O)[C@H](CC(C)C)NC(=O)[C@H](CC(N)=O)NC(=O)[C@@H]4CCCN4C(=O)[C@H](CCCNC(=N)N)NC(=O)[C@H](CSSC[C@H](NC(=O)[C@@H](N)CC(=O)O)C(=O)N[C@@H](CC(C)C)C(=O)NCC(=O)N[C@@H](Cc4ccccc4)C(=O)N[C@@H](CCSC)C(=O)N[C@@H](CCCNC(=N)N)C(=O)N[C@@H](CCCCN)C(=O)N2)NC(=O)[C@H](CSSC[C@@H](C(=O)N[C@@H](CCCCN)C(=O)N[C@@H](Cc2c[nH]c4ccccc24)C(=O)N[C@H](C(=O)N[C@@H](Cc2ccccc2)C(N)=O)C(C)C)NC(=O)[C@H](Cc2c[nH]c4ccccc24)NC(=O)[C@H](CCCCN)NC(=O)[C@H](Cc2c[nH]cn2)NC(=O)[C@H]([C@@H](C)O)NC(=O)[C@H](CCCNC(=N)N)NC(=O)[C@H](CO)NC3=O)NC(=O)[C@H](CCCCN)NC(=O)[C@H](CC(=O)O)NC(=O)[C@H](CC(N)=O)NC(=O)[C@H](CC(=O)O)NC(=O)[C@@H]2CCCN2C1=O` [compound 85] (H-DCLGFMRKCIPDNDKCCRPNLVCSRTHKWCKWVF-NH2; disulfide 2-17, 9-23, 16-30), for which the IC50 was determined as 160 nM on hNav1.3 (Table 25, use, […]); 90 nM on hNav1.7 (setting [1]); 6740 nM at hNav1.5 (Table 25, use, […]).

As for `CC[C@H](C)[C@@H]1NC(=O)[C@@H]2CSSC[C@@H]3NC(=O)[C@H](C(C)C)NC(=O)[C@H](CC(C)C)NC(=O)[C@H](CC(N)=O)NC(=O)[C@@H]4CCCN4C(=O)[C@H](CCCNC(=N)N)NC(=O)[C@H](CSSC[C@H](NC(=O)[C@@H](N)CC(=O)O)C(=O)N[C@@H](CC(C)C)C(=O)NCC(=O)N[C@@H](Cc4ccccc4)C(=O)N[C@@H](CCSC)C(=O)N[C@@H](CCCNC(=N)N)C(=O)N[C@@H](CCCCN)C(=O)N2)NC(=O)[C@H](CSSC[C@@H](C(=O)N[C@@H](CCCCN)C(=O)N[C@@H](Cc2ccc(O)cc2)C(=O)N[C@H](C(=O)N[C@@H](Cc2c[nH]c4ccccc24)C(N)=O)C(C)C)NC(=O)[C@H](Cc2c[nH]c4ccccc24)NC(=O)[C@H](CCCCN)NC(=O)[C@H](Cc2c[nH]cn2)NC(=O)[C@H]([C@@H](C)O)NC(=O)[C@H](CCCNC(=N)N)NC(=O)[C@H](CO)NC3=O)NC(=O)[C@H](CCCCN)NC(=O)[C@H](CC(=O)O)NC(=O)[C@H](CC(N)=O)NC(=O)[C@H](CC(=O)O)NC(=O)[C@@H]2CCCN2C1=O` [compound 86] (H-DCLGFMRKCIPDNDKCCRPNLVCSRTHKWCKYVW-NH2; disulfide 2-17, 9-23, 16-30), the IC50 on hNav1.3 (use-dependent, […]) was determined as 180 nM; on hNav1.7 (setting [2]), 260 nM; on hNav1.5 (use-dependent, […]) it was 10000 nM.
